Source: publication PMC3815312, “A Set of Engineered Escherichia coli Expression Strains for Selective Isotope and Reactivity Labeling of Amino Acid Side Chains and Flavin Cofactors” (PLoS ONE, 2013)

Target: T1, Slr1694 (SyPixD) (Synechocystis sp. PCC 6803, UniProt P74295)
T1 construct: wild type, expressed from pET28a(+)-slr1694 in E. coli CpX strains (CpXribF, CpXdeltaY); N-terminal vector extension (peptide 33-GSEFMSLYR-41 seen by MS); flavin incorporated in vivo; unlabeled, ring-13C6-Tyr or 13C apoprotein
T1 sequence (P74295 1-150): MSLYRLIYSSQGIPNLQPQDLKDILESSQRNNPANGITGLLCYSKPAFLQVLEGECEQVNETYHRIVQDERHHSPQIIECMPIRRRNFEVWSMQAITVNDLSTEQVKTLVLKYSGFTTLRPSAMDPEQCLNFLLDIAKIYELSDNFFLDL
Experiment: light-minus-dark FTIR difference spectroscopy of holoprotein
Type: binding
Conditions: in H2O; blue light 460 nm; non-covalent flavin incorporated in vivo (unlabeled riboflavin fed); bound flavin species not analysed, FMN and FAD named

SMILES: Cc1cc2nc3c(=O)[nH]c(=O)nc-3n(C[C@H](O)[C@H](O)[C@H](O)COP(=O)(O)OP(=O)(O)OC[C@H]3O[C@@H](n4cnc5c(N)ncnc54)[C@H](O)[C@@H]3O)c2cc1C [FAD]
- light-minus-dark FTIR difference spectroscopy of holoprotein: unlabeled riboflavin was provided in the medium throughout the cultivation procedure for the production of FMN and FAD cofactors
